Assay results reported in patent publication US9643964B2, “3-(2-aminopyrimidin-4-yl)-5-(3-hydroxypropynyl)-1H-pyrrolo[2,3-C]pyridine derivatives as NIK inhibitors for the treatment of cancer” (Janssen Pharmaceutica NV, priority 2013, dated 2017).

Assays:
L-363 cells = test: Biological Assay C: antiproliferative activity on L-363 cells (CellTiter-Glo); format: cell-based, human; conditions: Homo sapiens, L-363, 72 h, 72 hr treatment; averaged values
Outline: (§1)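 CellTiter-Glo luminescence after 72 h exposure, blank (cells read at compound addition) subtracted, growth expressed as % of untreated control; duplicate wells. Suspension cells in RPMI/10% FCS, 2,000–6,000 cells/well, 0.3% DMSO.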

[1] = target: T1, Recombinant Human NF-kappaB-Inducing Kinase (NIK/MAP3K14) (Homo sapiens, UniProt Q99558); test: Biological Assay A: inhibition of recombinant human NIK/MAP3K14 activity (MBP phosphorylation, Mesoscale); format: biochemical; conditions: averaged over all measurements on all batches; read-out: Biochemical (MSD MBP) IC50
Description: Inhibition of Recombinant Human NF-kappaB-Inducing Kinase (NIK/MAP3K14) Activity
Assay buffer was 50 mM Tris pH 7.5 containing 1 mM EGTA (ethylene glycol tetraacetic acid), 1 mM DTT (dithiothreitol), 0.1 mM Na3VO4, 5 mM MgCl2, 0.01% Tween 20. Assays were carried out in 384 well Mesoscale high binding plates which had been coated with myelin basic protein (MBP) and blocked with bovine serum albumin to prevent non-specific protein binding. All compounds tested were dissolved in dimethyl sulfoxide (DMSO) and further dilutions were made in assay buffer. Final DMSO concentration was 1% (v/v) in assays. Incubations consisted of compound (1% DMSO in control and blank wells), 25 μM Adenosine-5′-triphosphate (ATP), and 10 nM NIK/MAP3K14 substituting enzyme with buffer in the blank wells. Incubations were carried out for 1 h at 25° C. and were followed by washing and sequential incubation with rabbit anti-phospho-MBP and anti-rabbit Ig Sulfotag antibody before reading bound Sulfotag on a Mesoscale Discovery. Signal obtained in the wells containing blank samples was subtracted from all other wells and IC50's were determined by fitting a sigmoidal curve to % inhibition of control versus Log10 compound concentration.

LP-1 cells = test: Biological Assay C: antiproliferative activity on LP-1 cells (CellTiter-Glo); format: cell-based, human; conditions: Homo sapiens, LP-1, 72 h, 72 hr treatment; averaged values
Outline: as §1

[2] = tested on: P-IKKα levels in L363 cells; test: Biological Assay B: effect of compounds on P-IKKα levels in L363 cells; format: cell-based; conditions: Homo sapiens, L-363, averaged values, read-out: IKKα Cellular IC50
Description: Effect of Compounds on P-IKKα Levels in L363 Cells
All compounds tested were dissolved in DMSO and further dilutions were made in culture medium. Final DMSO concentration was 1% (v/v) in cell assays. The human L363 cells (ATCC) were cultured in RPMI 1640 medium supplemented with GlutaMax and 10% fetal calf serum (PAA). Cells were routinely maintained at densities of 0.2×10^6 cells per ml-1×10^6 cells per ml at 37° C. in a humidified 5% CO2 atmosphere. Cells were passaged twice a week splitting back to obtain the low density. Cells were seeded in 96 well plates (Nunc 167008) at 2×10^6 per ml media in a volume of 75 μl per well plus 25 μl 1 μg/ml recombinant human B-cell activating factor BAFF/B1YS/TNFSF13B. Seeded cells were incubated at 37° C. in a humidified 5% CO2 atmosphere for 24 hr. Drugs and/or solvents were added (20 μl) to a final volume of 120 μl. Following 2 hr treatment plates were removed from the incubator and cell lysis was achieved by the addition of 30 μl 5× lysis buffer followed by shaking on a plate shaker at 4° C. for 10 min. At the end of this incubation lysed cells were centrifuged at 800×g for 20 min at 4° C. and the lysate was assessed for P-IKKα levels by sandwich immuno-assay carried out in anti-rabbit antibody coated Mesoscale plates. Within an experiment, the results for each treatment were the mean of 2 replicate wells. For initial screening purposes, compounds were tested using an 8 point dilution curve (serial 1:3 dilutions). For each experiment, controls (containing MG132 and BAFF but no test drug) and a blank incubation (containing MG132 and BAFF and 10 μM ADS125117, a test concentration known to give full inhibition) were run in parallel. The blank incubation value was subtracted from all control and sample values. To determine the IC50 a sigmoidal curve was fitted to the plot of % inhibition of control P-IKKα levels versus Log10 compound concentration.

JJN-3 cells = test: Biological Assay C: antiproliferative activity on JJN-3 cells (CellTiter-Glo); format: cell-based, human; conditions: Homo sapiens, JJN-3, 72 h, 72 hr treatment; averaged values
Outline: as §1

[3] = target: T1, Recombinant Human NF-kappaB-Inducing Kinase (NIK/MAP3K14); test: Biological Assay A2: inhibition of auto-phosphorylation of recombinant human NIK/MAP3K14 (AlphaScreen); format: biochemical; conditions: auto-phosphorylation; averaged over all measurements on all batches; read-out: αscreen IC50
Outline: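 GST-tagged NIK/MAP3K14 (0.2 nM) auto-phosphorylation with 25 microM ATP in 50 mM Tris pH 7.5, 5 mM MgCl2, 1% DMSO; 1 h at 25° C. Phospho-IKK Ser176/180 detected by AlphaScreen; blank-subtracted % inhibition fitted sigmoidally vs log concentration for IC50.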

T1 sequence (Q99558 whole entry): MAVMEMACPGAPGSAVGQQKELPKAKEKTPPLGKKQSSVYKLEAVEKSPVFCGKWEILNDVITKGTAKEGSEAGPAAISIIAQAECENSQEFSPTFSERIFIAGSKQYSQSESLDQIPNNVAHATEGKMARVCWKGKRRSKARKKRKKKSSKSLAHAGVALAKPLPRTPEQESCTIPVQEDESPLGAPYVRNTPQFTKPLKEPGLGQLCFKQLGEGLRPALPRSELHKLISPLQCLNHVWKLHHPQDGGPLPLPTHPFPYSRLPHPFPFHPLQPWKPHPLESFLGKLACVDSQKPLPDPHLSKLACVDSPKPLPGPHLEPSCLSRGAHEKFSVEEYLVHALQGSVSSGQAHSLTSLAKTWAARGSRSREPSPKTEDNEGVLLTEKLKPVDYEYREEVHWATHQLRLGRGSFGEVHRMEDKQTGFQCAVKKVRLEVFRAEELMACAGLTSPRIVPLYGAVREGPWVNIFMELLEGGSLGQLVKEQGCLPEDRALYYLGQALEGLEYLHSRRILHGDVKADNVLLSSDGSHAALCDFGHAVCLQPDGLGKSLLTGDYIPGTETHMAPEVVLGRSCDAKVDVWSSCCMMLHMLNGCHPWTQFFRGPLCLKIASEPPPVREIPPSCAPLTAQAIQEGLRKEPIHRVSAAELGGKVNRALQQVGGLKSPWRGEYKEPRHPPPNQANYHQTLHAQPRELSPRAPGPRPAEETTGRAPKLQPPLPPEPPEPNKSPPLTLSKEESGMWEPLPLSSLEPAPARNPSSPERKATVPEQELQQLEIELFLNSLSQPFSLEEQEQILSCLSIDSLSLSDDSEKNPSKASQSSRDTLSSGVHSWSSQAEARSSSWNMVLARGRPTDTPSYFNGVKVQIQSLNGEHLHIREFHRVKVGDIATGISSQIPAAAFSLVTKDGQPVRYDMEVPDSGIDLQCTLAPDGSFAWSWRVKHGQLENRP

| Structure (SMILES) | IC50 [1] [nM] | IC50 [2] [nM] | IC50 [3] [nM] | EC50 (L-363 cells) [nM] | EC50 (LP-1 cells) [nM] | EC50 (JJN-3 cells) [nM] |
| --- | --- | --- | --- | --- | --- | --- |
| CC(C)(O)C#Cc1cc2c(-c3ccnc(N)n3)cn(CCN3CCOCC3)c2cn1 [Compound 7] | 15 | 540 | 210 | 1900 | 3200 | 1900 |
| CN(C)C(=O)Cn1cc(-c2ccnc(N)n2)c2cc(C#CC(C)(C)O)ncc21 [Compound 30] | 120 | 1700 | 930 | 24000 | > 10000 | 12000 |
| CN1CC(n2cc(-c3nc(N)ncc3F)c3cc(C#CC(C)(C)O)ncc32)C1 [Compound 70] | 28 | 51 | 130 | 120 | 3000 | 210 |
| CC(C)(O)Cn1cc(-c2nc(N)ncc2Cl)c2cc(C#CC3(O)CC3)ncc21 [Compound 21] | 18 | 13 | 3 | 74 | 2800 | 66 |
| CC(C)(O)C#Cc1cc2c(-c3ccnc(N)n3)cn(C3CNC3)c2cn1 [Compound 113] | 52 | 660 | 38 | 4600 | 24000 | 1400 |
| CC(C)(O)Cn1cc(-c2ccnc(N)n2)c2cc(C#CC(C)(O)c3ccccn3)ncc21 (stereo not drawn) [Compound 59] | 71 | 5000 | 230 | > 10000 | > 10000 | 17000 |
| CC(C)(O)C#Cc1cc2c(-c3ccnc(N)n3)cn(CCC(C)(C)O)c2cn1 [Compound 51] | 48 | 83 | 23 | 2400 | > 10000 | 990 |
| CC(C)(O)C#Cc1cc2c(-c3ccnc(N)n3)cn(CC3COC3)c2cn1 [Compound 28] | 17 | 84 | 49 | 810 | 5800 | 1200 |
| CCC(C)(O)C#Cc1cc2c(-c3ccnc(N)n3)cn(CC(C)(C)O)c2cn1 (stereo not drawn) [Compound 43] | 29 | 280 | 38 | 4100 | > 10000 | 650 |
| COCCn1cc(-c2nc(N)ncc2Cl)c2cc(C#CC(C)(C)O)ncc21 [Compound 25] | 9.9 | 11 | 20 | 63 | 190 | 110 |
| COCCNC(=O)c1c(-c2ccnc(N)n2)c2cc(C#CC(C)(C)O)ncc2n1C [Compound 69] | 250 | 600 | 89 | 870 | 16000 | 1800 |
| CC(C)(O)Cn1cc(-c2ccnc(N)n2)c2cc(C#CC3(O)CCOC3)ncc21 (stereo not drawn) [Compound 29] | 140 | 6300 | 110 | > 10000 | > 10000 | > 10000 |
| CN(C)C(=O)CCn1cc(-c2ccnc(N)n2)c2cc(C#CC(C)(C)O)ncc21 [Compound 50] | 140 | 650 | 230 | 7500 | > 10000 | 2700 |
| COCCn1cc(-c2ccnc(N)n2)c2cc(C#CC(C)(O)c3ncco3)ncc21 (stereo not drawn) [Compound 31] | 36 | 110 | 79 | 6400 | > 10000 | 1900 |
| CNc1ncc(Cl)c(-c2cn(CC(C)(C)O)c3cnc(C#CC(C)(C)O)cc23)n1 [Compound 58] | 430 | 110 | 700 | 500 | 2000 | 550 |
| CC(C)(O)Cn1cc(-c2ccnc(N)n2)c2cc(C#CC(C)(O)C(F)(F)F)ncc21 (stereo not drawn) [Compound 111] | 220 | 290 | 190 | 1300 | 7500 | 640 |
| COCCn1cc(-c2ccnc(N)n2)c2cc(C#CC(C)(O)C3CC3)ncc21 (stereo not drawn) [Compound 32] | 59 | 89 | 40 | 740 | 1500 | 460 |
| CC(C)(O)Cn1cc(-c2nc(N)ncc2Cl)c2cc(C#CC(C)(O)c3nccs3)ncc21 (stereo not drawn) [Compound 23] | 30 | 89 | 9 | 9900 | 7700 | 2500 |
| CC(C)(O)C#Cc1cc2c(-c3ccnc(N)n3)cn(C3COC3)c2cn1 [Compound 65] | 15 | 140 | 54 | 400 | 7000 | 470 |

Stronger by IC50 [1], values ahead:

| IC50 [1] [nM] | IC50 [2] [nM] | IC50 [3] [nM] | Structure (SMILES) | EC50 (L-363 cells) [nM] | EC50 (LP-1 cells) [nM] | EC50 (JJN-3 cells) [nM] |
| --- | --- | --- | --- | --- | --- | --- |
| 9.4 | 30 | 15 | COCCn1cc(-c2nc(N)ncc2Cl)c2cc(C#CC(C)(O)c3nccs3)ncc21 (stereo not drawn) [Compound 20] | 5000 | 11000 | 1000 |
| 8.7 | 13 | 15 | CC(C)(O)C#Cc1cc2c(-c3nc(N)ncc3Cl)cn(CC(C)(C)O)c2cn1 [Compound 24] | 96 | 760 | 140 |
| 8.4 | 19 | 11 | CC(C)(O)C#Cc1cc2c(-c3nc(N)ncc3C#N)cn(CC(C)(C)O)c2cn1 [Compound 60] | 150 | 14000 | 170 |
| 8 | 300 | 27 | CC(C)(O)C#Cc1cc2c(-c3ccnc(N)n3)cn(CCCN)c2cn1 [Compound 11] | 130 | 600 | 41 |
| 7.4 | 150 | 3 | CC(C)(O)C#Cc1cc2c(-c3ccnc(N)n3)cn(CCO)c2cn1 [Compound 12] | 1200 | 12000 | 1300 |
| 5.8 | 240 | 52 | CC(C)(O)C#Cc1cc2c(-c3ccnc(N)n3)cn(C(C)(C)CO)c2cn1 [Compound 66] | 270 | 7600 | 250 |
| 4.9 | 17 | 6 | CC(C)n1cc(-c2nc(N)ncc2Cl)c2cc(C#CC(C)(O)c3nccs3)ncc21 (stereo not drawn) [Compound 17] | 810 | 8000 | 460 |
| 3.7 | 47 | 8 | CC(C)n1cc(-c2ccnc(N)n2)c2cc(C#CC3(O)CCCC3)ncc21 [Compound 18] | 450 | 1500 | 340 |
| 1.6 | 30 | 8 | Cn1cc(-c2ccnc(N)n2)c2cc(C#CC(C)(C)O)ncc21 [Compound 5] | 94 | 320 | 160 |
| 1.1 | 37 | 2 | Nc1nccc(-c2c[nH]c3cnc(C#CC4(O)CC4)cc23)n1 [Compound 9] | 120 | 1200 | 74 |
